Results: publication PMC6720883, “In Vitro Inhibitory Effects of APINACA on Human Major Cytochrome P450, UDP-Glucuronosyltransferase Enzymes, and Drug Transporters” (Molecules, 2019)
Read-outs that look alike come from different tables or passages of the source.

Legend:
BCRP = biological target: T1, BCRP (Homo sapiens, UniProt Q9UNQ0); test: B to A transport of [3-H]estrone-3-sulfate in LLC-PK1-BCRP cells; format: in vitro ADME; settings: human, LLC-PK1-BCRP cell monolayers on filter membranes, probe [3H]estrone-3-sulfate (0.1 μM), B to A transport
T1 sequence (Q9UNQ0 1-655): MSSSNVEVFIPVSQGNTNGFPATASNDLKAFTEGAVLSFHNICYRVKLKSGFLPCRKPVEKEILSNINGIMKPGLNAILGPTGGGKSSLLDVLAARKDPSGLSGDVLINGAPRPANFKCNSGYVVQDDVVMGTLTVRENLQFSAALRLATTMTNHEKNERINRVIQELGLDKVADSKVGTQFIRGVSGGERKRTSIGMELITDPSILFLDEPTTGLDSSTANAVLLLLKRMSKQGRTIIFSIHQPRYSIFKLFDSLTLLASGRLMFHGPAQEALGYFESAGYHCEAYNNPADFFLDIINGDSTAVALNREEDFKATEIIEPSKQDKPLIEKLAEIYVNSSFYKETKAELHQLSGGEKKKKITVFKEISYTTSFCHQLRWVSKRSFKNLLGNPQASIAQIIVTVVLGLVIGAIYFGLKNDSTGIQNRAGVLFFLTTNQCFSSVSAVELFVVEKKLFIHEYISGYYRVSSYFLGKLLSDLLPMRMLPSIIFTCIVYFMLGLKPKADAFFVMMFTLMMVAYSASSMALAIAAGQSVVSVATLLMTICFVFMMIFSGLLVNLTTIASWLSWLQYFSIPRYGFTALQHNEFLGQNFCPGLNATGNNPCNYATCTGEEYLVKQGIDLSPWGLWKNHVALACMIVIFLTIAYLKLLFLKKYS

CYP2C19 = CYP2C19 (Homo sapiens, UniProt P33261); test: Inhibition of CYP2C19-mediated [S]-mephenytoin 4′-hydroxylase in ultrapooled human liver microsomes; format: in vitro ADME
Sequence of CYP2C19 (P33261 whole entry): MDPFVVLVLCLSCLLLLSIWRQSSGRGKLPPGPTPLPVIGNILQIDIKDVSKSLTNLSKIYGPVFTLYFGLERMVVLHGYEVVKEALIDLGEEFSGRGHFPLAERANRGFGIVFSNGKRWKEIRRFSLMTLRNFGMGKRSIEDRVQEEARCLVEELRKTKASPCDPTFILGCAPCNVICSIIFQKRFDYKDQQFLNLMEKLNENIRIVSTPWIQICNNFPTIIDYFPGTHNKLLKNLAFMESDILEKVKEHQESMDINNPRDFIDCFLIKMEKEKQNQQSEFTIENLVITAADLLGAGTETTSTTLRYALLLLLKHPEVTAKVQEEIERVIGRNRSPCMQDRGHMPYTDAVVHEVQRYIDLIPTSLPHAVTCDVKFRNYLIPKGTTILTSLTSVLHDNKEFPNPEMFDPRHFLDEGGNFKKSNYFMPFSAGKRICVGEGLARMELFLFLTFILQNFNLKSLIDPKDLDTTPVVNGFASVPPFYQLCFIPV
Protocol: (§1) The inhibitory potentials (IC50 values) of APINACA and typical CYP inhibitors on CYP 1A2, 2A6, 2C8, 2C9, 2C19, 2D6, and 3A4 activities in pooled human liver microsomes were evaluated following our previous method using a cocktail of CYP substrates, followed by LC–MS/MS [43]. […] After 3 min of preincubation at 37 °C, the reaction mixtures were incubated for 15 min at 37 °C with the addition of NADPH in a shaking water bath. The reaction was stopped by adding 100 μL of ice cold methanol containing internal standards (d9-1′-hydroxybufuralol for 1′-hydroxybufuralol, 4′-hydroxydiclofenac, 7-hydroxycoumarin, 1′-hydroxymidazolam, and 4′-hydroxymephenytoin; ^13C2, ^15N-acetaminophen for acetaminophen and N-desethylamodiaquine). The incubation mixtures were centrifuged at 13,000× g for 8 min at 4 °C, and 50 μL of each supernatant was diluted with 50 μL of water. Aliquots (5 μL) of the diluted supernatants were analyzed by LC–MS/MS. All assays were performed in triplicate, and the average values were used for subsequent calculations.
(§2) To measure the time-dependent inhibition, human liver microsomes were preincubated with the various concentrations of APINACA (final concentrations of 0.1−100 μM) and NADPH for 30 min at 37 °C. Next, the reaction mixtures were incubated with a seven-CYP probe substrate cocktail or bupropion for 15 min at 37 °C. […]

UGT1A9 = biological target: T2, UGT1A9 (Homo sapiens, UniProt O60656); test: Inhibition of UGT1A9-catalyzed mycophenolic acid glucuronidation in human liver microsomes; format: in vitro ADME; design: […]; tissue Corning Life Sciences; settings: IC50 UGT1A9 mycophenolic acid glucuronidation, pooled human liver microsomes
T2 sequence (O60656 26-530): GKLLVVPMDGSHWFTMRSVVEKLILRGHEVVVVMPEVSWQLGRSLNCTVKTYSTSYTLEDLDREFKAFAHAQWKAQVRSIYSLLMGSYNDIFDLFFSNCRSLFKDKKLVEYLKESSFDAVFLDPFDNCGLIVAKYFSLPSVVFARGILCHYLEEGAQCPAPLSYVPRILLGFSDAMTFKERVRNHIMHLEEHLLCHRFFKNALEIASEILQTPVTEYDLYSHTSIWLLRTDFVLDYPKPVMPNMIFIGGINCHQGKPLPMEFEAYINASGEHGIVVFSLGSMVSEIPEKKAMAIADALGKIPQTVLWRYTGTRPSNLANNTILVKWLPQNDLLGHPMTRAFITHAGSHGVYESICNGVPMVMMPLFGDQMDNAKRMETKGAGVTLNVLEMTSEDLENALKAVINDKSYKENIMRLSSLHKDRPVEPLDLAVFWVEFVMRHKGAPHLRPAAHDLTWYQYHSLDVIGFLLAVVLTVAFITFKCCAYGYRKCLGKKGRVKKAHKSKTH
Source text: (§3) 12.5 (Systat Software, Inc.; San Jose, CA, USA). […] 1.1 (Systat Software, Inc.).

CYP2C8 = CYP2C8 (Homo sapiens, UniProt P10632); test: Inhibition of CYP2C8-catalyzed amodiaquine N-deethylase in ultrapooled human liver microsomes; format: in vitro ADME
Sequence of CYP2C8 (P10632 whole entry): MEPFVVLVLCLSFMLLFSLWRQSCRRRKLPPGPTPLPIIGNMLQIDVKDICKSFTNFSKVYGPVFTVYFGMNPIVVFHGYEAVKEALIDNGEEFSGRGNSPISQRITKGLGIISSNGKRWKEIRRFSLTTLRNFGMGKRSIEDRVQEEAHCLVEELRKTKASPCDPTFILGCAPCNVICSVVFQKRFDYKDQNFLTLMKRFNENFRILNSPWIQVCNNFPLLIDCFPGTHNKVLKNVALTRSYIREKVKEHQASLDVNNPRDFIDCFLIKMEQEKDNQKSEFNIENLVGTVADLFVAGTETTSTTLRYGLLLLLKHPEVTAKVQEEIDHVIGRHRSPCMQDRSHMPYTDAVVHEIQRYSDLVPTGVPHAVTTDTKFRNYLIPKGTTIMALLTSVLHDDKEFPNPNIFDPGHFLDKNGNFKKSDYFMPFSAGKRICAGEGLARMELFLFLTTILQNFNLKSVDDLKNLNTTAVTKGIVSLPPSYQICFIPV
Protocol: as §1, §2

CYP2A6 = CYP2A6 (Homo sapiens, UniProt P11509); test: Inhibition of CYP2A6-mediated coumarin 7-hydroxylase in ultrapooled human liver microsomes; format: in vitro ADME
Sequence of CYP2A6 (P11509 whole entry): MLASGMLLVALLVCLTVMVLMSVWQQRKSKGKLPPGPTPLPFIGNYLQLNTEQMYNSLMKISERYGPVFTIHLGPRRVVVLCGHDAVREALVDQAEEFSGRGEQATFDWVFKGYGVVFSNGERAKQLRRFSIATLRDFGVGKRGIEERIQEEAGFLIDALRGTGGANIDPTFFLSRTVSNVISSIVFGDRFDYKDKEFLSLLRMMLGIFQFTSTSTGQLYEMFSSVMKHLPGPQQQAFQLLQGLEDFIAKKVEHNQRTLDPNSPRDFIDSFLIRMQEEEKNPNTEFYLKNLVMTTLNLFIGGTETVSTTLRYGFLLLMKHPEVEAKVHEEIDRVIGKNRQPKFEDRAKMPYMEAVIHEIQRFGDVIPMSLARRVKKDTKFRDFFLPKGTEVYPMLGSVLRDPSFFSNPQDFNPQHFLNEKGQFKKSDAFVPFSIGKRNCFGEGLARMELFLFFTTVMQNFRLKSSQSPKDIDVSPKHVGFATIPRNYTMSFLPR
Protocol: as §1, §2

OAT1 = OAT1 (Homo sapiens, UniProt Q4U2R8); test: Uptake of [3-H]para-aminohippuric acid in HEK293-OAT1 cells
Sequence of OAT1 (Q4U2R8 whole entry): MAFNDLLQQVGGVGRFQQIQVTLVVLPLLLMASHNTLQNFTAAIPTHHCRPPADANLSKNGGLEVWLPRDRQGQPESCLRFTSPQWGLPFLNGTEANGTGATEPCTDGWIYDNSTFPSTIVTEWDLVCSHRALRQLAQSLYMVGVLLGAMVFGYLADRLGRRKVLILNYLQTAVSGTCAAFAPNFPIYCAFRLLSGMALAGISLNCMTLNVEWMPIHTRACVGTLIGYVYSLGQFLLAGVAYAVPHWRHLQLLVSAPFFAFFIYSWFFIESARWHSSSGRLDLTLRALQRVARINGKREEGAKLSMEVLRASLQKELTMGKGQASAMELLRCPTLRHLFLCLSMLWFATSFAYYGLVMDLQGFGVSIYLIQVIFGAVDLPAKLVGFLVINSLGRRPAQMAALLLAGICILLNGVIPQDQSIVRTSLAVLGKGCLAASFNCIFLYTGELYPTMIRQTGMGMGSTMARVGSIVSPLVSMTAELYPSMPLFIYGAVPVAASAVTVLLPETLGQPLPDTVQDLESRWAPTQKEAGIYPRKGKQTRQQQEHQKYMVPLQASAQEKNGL

CYP2C9 = CYP2C9 (Homo sapiens, UniProt P11712); test: Inhibition of CYP2C9-catalyzed diclofenac 4′-hydroxylase in ultrapooled human liver microsomes; format: in vitro ADME; settings: CYP2C9 diclofenac 4′-hydroxylase
Sequence of CYP2C9 (P11712 whole entry): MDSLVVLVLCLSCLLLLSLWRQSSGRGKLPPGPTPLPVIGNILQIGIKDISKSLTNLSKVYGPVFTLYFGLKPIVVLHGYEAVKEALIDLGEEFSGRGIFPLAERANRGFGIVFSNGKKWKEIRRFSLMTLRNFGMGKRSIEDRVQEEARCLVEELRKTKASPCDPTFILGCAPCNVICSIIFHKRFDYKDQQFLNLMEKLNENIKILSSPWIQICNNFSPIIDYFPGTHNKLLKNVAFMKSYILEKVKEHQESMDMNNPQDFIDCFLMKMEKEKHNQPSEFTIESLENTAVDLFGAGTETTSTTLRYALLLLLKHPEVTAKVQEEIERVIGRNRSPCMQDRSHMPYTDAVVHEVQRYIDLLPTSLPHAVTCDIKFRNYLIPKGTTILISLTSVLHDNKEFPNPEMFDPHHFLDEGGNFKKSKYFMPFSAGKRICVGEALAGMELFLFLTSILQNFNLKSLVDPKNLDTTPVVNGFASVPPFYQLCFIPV
Protocol: The inhibitory potentials (IC50 values) of APINACA and typical CYP inhibitors on CYP 1A2, 2A6, 2C8, 2C9, 2C19, 2D6, and 3A4 activities in pooled human liver microsomes were evaluated following our previous method using a cocktail of CYP substrates, followed by LC–MS/MS [43]. […]. After 3 min of preincubation at 37 °C, the reaction mixtures were incubated for 15 min at 37 °C with the addition of NADPH in a shaking water bath. The reaction was stopped by adding 100 μL of ice cold methanol containing internal standards (d9-1′-hydroxybufuralol for 1′-hydroxybufuralol, 4′-hydroxydiclofenac, 7-hydroxycoumarin, 1′-hydroxymidazolam, and 4′-hydroxymephenytoin; ^13C2, ^15N-acetaminophen for acetaminophen and N-desethylamodiaquine). […] Aliquots (5 μL) of the diluted supernatants were analyzed by LC–MS/MS.
Next, the reaction mixtures were incubated with a seven-CYP probe substrate cocktail or bupropion for 15 min at 37 °C.
The LC-MS/MS system was comprised of an Agilent 6495 triple quadrupole mass spectrometer coupled with an Agilent 1290 Infinity system (Agilent Technologies, CA, USA). The column and autosampler temperatures were 40 °C and 4 °C, respectively.
The data were processed using Mass Hunter software (Agilent Technologies).
as §3

CCCCCn1nc(C(=O)NC23CC4CC(CC(C4)C2)C3)c2ccccc21 [APINACA, N-(1-adamantyl)-1-pentyl-1H-indazole-3-carboxamide] was tested, and the IC50 (BCRP) was over 100 µM, the IC50 (CYP2C19) was over 100 µM and the IC50 (CYP2C19; read-out: IC50 (μM) With Preincubation, CYP2C19 [S]-mephenytoin 4′-hydroxylase, ultrapooled human liver microsomes, 30-min preincubation with NADPH) was over 100 µM. It also gave an IC50 (UGT1A9; with 30-min preincubation, 30-min preincubation with UDPGA (○)) of 30.7 µM, an IC50 (UGT1A9; without preincubation, 0.2 µM mycophenolic acid) of 32.7 µM and an IC50 (CYP2C8) of over 100 µM. The IC50 (CYP2C8; read-out: IC50 (μM) With Preincubation, CYP2C8 amodiaquine N-deethylase, ultrapooled human liver microsomes, 30-min preincubation with NADPH) was over 100 µM, the IC50 (CYP2A6) was over 100 µM and the IC50 (CYP2A6; read-out: IC50 (μM) With Preincubation, CYP2A6 coumarin 7-hydroxylase, ultrapooled human liver microsomes, 30-min preincubation with NADPH) was over 100 µM. It also gave an IC50 (OAT1) of over 250 µM, an IC50 (CYP2C9; IC50 (μM) No Preincubation, 10 μM diclofenac, no preincubation) of over 100 µM and an IC50 (CYP2C9; IC50 (μM) With Preincubation, 30-min preincubation with NADPH) of 85 µM. For the same molecule, the IC50 at 15 min (CYP2C9; human, microsomes, pH 7.4, IC50 (μM) With Preincubation, 30-min preincubation with NADPH) was over 100 µM.
